Test results: patent US20030187240A1, “2' -modified oligonucleotides” (ISIS Pharmaceuticals, Inc., priority 1990, published 2003)
Where “and” joins values, the source holds several entries; their conditions need not be identical. Equal values may be shown once. Entries after “also recorded” stand apart in the source; their conditions may differ. Strand notation (5' to 3'): a small letter for the sugar, then the base; units joined by * are phosphorothioate-linked, units joined directly phosphodiester-linked; [ ] holds rarer units or linkages, { } end groups; capitals alone tell only the bases. d = 2'-deoxy (DNA); m = 2'-O-methyl

Legend:
[1] = system: codon-12 point mutation of mutant (activated) H-ras RNA; type: cell-based, human
[2] = system: T24 cancer cell proliferation; assay: Inhibition of proliferation of cancer cells; type: cell-based, human; details: for inhibition of cell proliferation / IC50: T24 cells; for IC50: dose-response study
Method: Cells were cultured and treated with oligonucleotide essentially as described in Example 27. Cells were seeded on 60 mm plates and were treated with oligonucleotide in the presence of DOTMA when they reached 70% confluency. Time course experiment: On day 1, cells were treated with a single dose of oligonucleotide at a final concentration of 100 nM. The growth medium was changed once on day 3 and cells were counted every day for 5 days, using a counting chamber. Dose-response experiment: Various concentrations of oligonucleotide (10, 25, 50, 100 or 250 nM) were added to the cells and cells were harvested and counted 3 days later. Oligonucleotides 2570, 3985 and 4690 were tested for effects on T24 cancer cell proliferation.

[3] = system: ras mRNA; assay: Northern blot analysis of ras expression in T24 cells; type: cell-based, human; parameters: inhibition of ras expression / decrease of ras mRNA: concentration or dose not given beside the values; details: for inhibition of ras expression in T24 cells: result in words
Method: (§1) The human urinary bladder cancer cell line T24 was obtained from the American Type Culture Collection (Rockville Md.). Cells were grown in McCoy's 5A medium with L-glutamine (GIBCO-BRL, Gaithersburg, Md.), supplemented with 10% heat-inactivated fetal calf serum and 50 U/ml each of penicillin and streptomycin. Cells were seeded on 100 mm plates. When they reached 70% confluency, they were treated with oligonucleotide. Plates were washed with 10 ml prewarmed PBS and 5 ml of OptiMEM (GIBCO) reduced-serum medium containing 2.5 μl DOTMA. Oligonucleotide was then added to the desired concentration. After 4 hours of treatment, the medium was replaced with McCoy's medium. Cells were harvested 48 hours after oligonucleotide treatment and RNA was isolated using a standard CsCl purification method. [Kingston in Current Protocols in Molecular Biology, F. M. Ausubel, R. Brent, R. E. Kingston, D. D. Moore, J. A. Smith, J. G. Seidman and K. Strahl, Eds., John Wiley and Sons, New York.] The human epithelioid carcinoma cell line HeLa 229 was obtained from the American Type Culture Collection (Bethesda, Md.). HeLa cells were maintained as monolayers on 6-well plates in Dulbecco's Modified Eagle's medium (DMEM) supplemented with 10 fetal bovine serum and 100 U/ml penicillin. Treatment with oligonucleotide and isolation of RNA were essentially as described above for T24 cells.
Northern hybridization: 10 μg of each RNA was electrophoresed on a 1.2% agarose/formaldehyde gel and transferred overnight to GeneBind 45 nylon membrane (Pharmacia LKB, Piscataway, N.J.) using standard methods. [Kingston in Current Protocols in Molecular Biology, F. M. Ausubel, R. Brent, R. E. Kingston, D. D. Moore, J. A. Smith, J. G. Seidman and K. Strahl, Eds., John Wiley and Sons, New York.] RNA was UV-crosslinked to the membrane. Double-stranded ^32P-labeled probes were synthesized using the Prime a Gene labeling kit (Promega, Madison Wis.). The ras probe was a SalI-NheI fragment of a cDNA clone of the activated (mutant) H-ras mRNA having a GGC-to-GTC mutation at codon-12. The control probe was G3PDH. Blots were prehybridized for 15 minutes at 68° C. with the QuickHyb hybridization solution (Stratagene, La Jolla, Calif.). The heat-denatured radioactive probe (2.5×10^6 counts/2 ml hybridization solution) mixed with 100 μl of 10 mg/ml salmon sperm DNA was added and the membrane was hybridized for 1 hour at 68° C. The blots were washed twice for 15 minutes at room temperature in 2×SSC/0.1% SDS and once for 30 minutes at 60° C. with 0.1×SSC/0.1%SDS. Blots were autoradiographed and the intensity of signal was quantitated using an ImageQuant PhosphorImager (Molecular Dynamics, Sunnyvale, Calif.). Northern blots were first hybridized with the ras probe, then stripped by boiling for 15 minutes in 0.1×SSC/0.1%SDS and rehybridized with the control G3PDH probe to check for correct sample loading.

[4] = system: c-raf mRNA; assay: Northern blot analysis of inhibition of c-raf mRNA expression in T24 cells; type: cell-based, human
From the text: Chimeric oligonucleotides having SEQ ID NO: 7 were designed using the Genbank c-raf sequence HUMRAFR (Genbank listing x03484), synthesized and tested for inhibition of c-raf mRNA expression in T24 bladder carcinoma cells using a Northern blot assay. These chimeric oligonucleotides have central “gap” regions of 6, 8 or 10 deoxynucleotides flanked by two regions of 2′-O-methyl modified nucleotides, and are shown in Table 10. Backbones were uniformly phosphorothioate. […] These oligonucleotides are preferred.
The human urinary bladder cancer cell line T24 was obtained from the American Type Culture Collection (Rockville, Md.). Cells were grown in McCoy's 5A medium with L-glutamine (GIBCO-BRL, Gaithersburg, Md.), supplemented with 10% heat-inactivated fetal calf serum and 50 U/ml each of penicillin and streptomycin. Cells were seeded on 100 mm plates. When they reached 70% confluency, they were treated with oligonucleotide. Plates were washed with 10 ml prewarmed PBS and 5 ml of OptiMEM reduced-serum medium containing 2.5 μl DOTMA. Oligonucleotide with lipofectin was then added to the desired concentration. After 4 hours of treatment, the medium was replaced with McCoy's medium. Cells were harvested 24 to 72 hours after oligonucleotide treatment and RNA was isolated using a standard CsCl purification method. [Kingston in Current Protocols in Molecular Biology, F. M. Ausubel, R. Brent, R. E. Kingston, D. D. Moore, J. A. Smith, J. G. Seidman and K. Strahl, Eds., John Wiley and Sons, New York.] Total RNA was isolated by centrifugation of cell lysates over a CsCl cushion. RNA samples were electrophoresed through 1.2% agarose-formaldehyde gels and transferred to hybridization membranes by capillary diffusion over a 12-14 hour period. The RNA was cross-linked to the membrane by exposure to UV light in a Stratalinker (Stratagene, La Jolla, Calif.) and hybridized to random-primed ^32P-labeled c-raf cDNA probe (obtained from ATCC) or G3PDH probe as a control. RNA was quantitated using a Phosphorimager (Molecular Dynamics, Sunnyvale, Calif.).

[5] = system: ras expression in HeLa cells (wild-type H-ras codon-12); assay: Northern blot analysis of ras expression in HeLa cells; type: cell-based, human
Method: as §1, with “The human epithelioid carcinoma cell line HeLa 229 was obtained from the American Type Culture Collection (Bethesda, Md.). HeLa cells were maintained as monolayers on 6-well plates in Dulbecco's Modified Eagle's medium (DMEM) supplemented with 10 fetal bovine serum and 100 U/ml penicillin. Treatment with oligonucleotide and isolation of RNA were essentially as described above for T24 cells.” left out
Northern hybridization: 10 μg of each RNA was electrophoresed on a 1.2% agarose/formaldehyde gel and transferred overnight to GeneBind 45 nylon membrane (Pharmacia LKB, Piscataway, N.J.) using standard methods. […] Blots were autoradiographed and the intensity of signal was quantitated using an ImageQuant PhosphorImager (Molecular Dynamics, Sunnyvale, Calif.). […]

[6] = system: H-ras; assay: ras transactivation reporter gene assay; type: cell-based; details: antisense activity against H-ras, 17-mer with 7-deoxy gap
From the text: The expression plasmid pSV2-oli, containing an activated (codon 12, GGC→GTC) H-ras cDNA insert under control of the constitutive SV40 promoter, was a gift from Dr. Bruno Tocque (Rhone-Poulenc Sante, Vitry, France). This plasmid was used as a template to construct, by PCR, a H-ras expression plasmid under regulation of the steroid-inducible mouse mammary tumor virus (MMTV) promoter. To obtain H-ras coding sequences, the 570 bp coding region of the H-ras gene was amplified by PCR. The PCR primers were designed with unique restriction endonuclease sites in their 5′-regions to facilitate cloning. The PCR product containing the coding region of the H-ras codon 12 mutant oncogene was gel purified, digested, and gel purified once again prior to cloning. This construction was completed by cloning the insert into the expression plasmid pMAMneo (Clontech Laboratories, Calif.).
The ras-responsive reporter gene pRD053 was used to detect ras expression. [Owen et al., Proc. Natl. Acad. Sci. U.S.A., 87, 3866 (1990).

[7] = system: crude HeLa cellular extracts
[8] = system: 25 mer oligoribonucleotide complement; assay: Melting curves of 2′-modified 17-mers with 7-deoxy gap; type: binding; details: 17-mer with 7-deoxy gap hybridized with 25 mer oligoribonucleotide complement
From the text: This is attributed to these phosphodiester compounds being substrates for nucleases that degrade such phosphodiester compounds thus preventing them potentially activating RNase H. Other sugar modifications: The effects of other 2′ sugar modifications besides 2′-O-methyl on antisense activity in chimeric oligonucleotides have been examined. These modifications are listed in Table 4, along with the Tm values obtained when 17 mer oligonucleotides having 2′-modified nucleotides flanking a 7-base deoxy gap were hybridized with a 25 mer oligoribonucleotide complement as described in Example 25. […] As alkyl length increased, Tm decreased.
Absorbance vs. temperature curves were measured at 260 nm using a Gilford 260 spectrophotometer interfaced to an IBM PC computer and a Gilford Response II spectrophotometer. The buffer contained 100 mM Na^+, 10 mM phosphate and 0.1 mM EDTA, pH 7. Oligonucleotide concentration was 4 μM each strand determined from the absorbance at 85° C. and extinction coefficients calculated according to Puglisi and Tinoco [Methods in Enzymol., 180, 304 (1989). Tm values, free energies of duplex formation and association constants were obtained from fits of data to a two state model with linear sloping baselines. [Petersheim and Turner, Biochemistry, 22, 256 (1983). Reported parameters are averages of at least three experiments. For some oligonucleotides, free energies of duplex formation were also obtained from plots of Tm^−1 vs log10 (concentration). Borer et al., J. Mol. Biol., 86, 843 (1974).

## 3985 (CCACACCGACGGCGCCC; 2'-O-methyl wings, phosphorothioate, wing lengths not given here) [Oligonucleotide 3985]
[1]
  inhibition of ras-luciferase activity: greatest inhibition
[2]
  inhibition of cell proliferation: 82%
  IC50: 61 nM
[3]
  inhibition of ras expression / decrease of ras mRNA: 95% and 81%

## 7854 (TTCTCCTCCTCCCCTGGCAG; sugars from the 5' end m12 d8, all phosphorothioate, T or U not given here) [Oligonucleotide 7854]
[4]
  inhibition of c-raf mRNA expression: > 70%

## 7856 (dT*dT*dC*dT*dC*dG*dC*dC*dC*dG*dC*dT*dC*dC*dT*dC*dC*dT*dC*dC) [Oligonucleotide 7856]
[4]
  inhibition of c-raf mRNA expression: > 70%

## CdCdAd CdAdCd CdGdAd CdGdGd CdGdCd CdCd [Oligonucleotide 2570, reference compound]
[5]
  inhibition of ras expression in HeLa cells: did not inhibit ras expression in HeLa cells
[1]
  inhibition of ras-luciferase activity: dose-dependent inhibition of ras-luciferase activity
  selectivity toward the mutant form of ras-luciferase as compared to the normal form: approximate threefold selectivity
[2]; 100 nM oligonucleotide concentration
  inhibition of T24 cell proliferation relative to inhibition of HeLa cells: four times as severe
[2]
  inhibition of cell proliferation: 61%
  IC50: 98 nM
[6]
  IC50: 150 nM
[7]
  degradation in HeLa cell extract: no degradation after 5 hours
[8]
  Tm (° C.): 6 °C
[3]
  inhibition of ras expression / decrease of ras mRNA: 82%
  inhibition of ras expression in T24 cells: inhibited ras expression in T24 cells; also recorded: decreased ras mRNA levels in T24 cells

## T C C G T C AT C G C T C C T C A G G G [Oligonucleotide 2503]
[5]
  inhibition of ras expression in HeLa cells: inhibited ras expression in HeLa cells
[3]
  inhibition of ras expression / decrease of ras mRNA: 71%
  inhibition of ras expression in T24 cells: inhibited ras expression in T24 cells

## TCCCGCCTGTGACATGCATT (sugars from the 5' end m7 d6 m7, all phosphorothioate, T or U not given here) [Oligonucleotide 6720]
[4]
  inhibition of c-raf mRNA expression: greater than 70%

## TCCTCCTCCCCGCGGCGGGT (sugars from the 5' end m11 d9, all phosphorothioate, T or U not given here) [Oligonucleotide 7848]
[4]
  inhibition of c-raf mRNA expression: > 70%
